Source: patent publication US11400102B2, “Treatment for bacterial infections with salicylic acid analogs” (priority 2019, dated 2022)

How the values were obtained:
[1] = test system: yersiniabactin; experiment: 13C labeled salicylic acid incorporation into Ybt in culture; assay type: cell-based; details: FIG. 12 middle panel
[2] = test system: yersiniabactin; experiment: 13C labeled salicylic acid in infection model, labeled Ybt in mouse urine; assay type: in vivo; details: FIG. 12 right panel

SMILES: O=C(O)[13c]1[13cH][13cH][13cH][13cH][13c]1O [^13C labeled salicylic acid]
- incorporation of labeled compound into Ybt during culture [1]: incorporated
- labeled compound in mouse urine by mass spectrometry [2]: detectable
